# Measurements: US9567347B2, “Use of small molecule inhibitors targeting the interaction between RAC GTPase and p67(phox)” (CHILDREN'S HOSPITAL MEDICAL CENTER, priority 2012, dated 2017)
# Legend:
# [1] = test system: fMLP-activated primary murine neutrophils; test: Nitroblue tetrazolium (NBT) assay; type: cell-based, mouse; details: for ROS inhibition (NBT positive cells): 10 μM, FIG. 9
# Procedure: Primary neutrophils from mouse bone marrow were subjected to fMLP stimulation in the presence or absence of various chemicals for 5 min. Cells were stained for NBT activity as previously described in the incorporated materials of Filippi et al. (2004) to reveal relative ROS production.
# To complement the DCFDA based FACS analysis and the luminol chemiluminescence method, nitroblue tetrazolium (NBT) assays were performed in fMLP-activated primary murine neutrophils (FIG. 3C).
# The NBT assay was performed in primary murine neutrophils to measure ROS neutrophil production. […] Each compound was used at 10 μM.
# neutrophils = test: toxicity to neutrophils; type: cell-based, mouse
# dHL-60 cells [2] = test: antioxidant (ROS scavenger) test in dHL-60 cells pre-stimulated with fMLP; type: cell-based, human; details: fMLP 30 min prior to treatment
# Procedure: (A) Apoptosis analysis by FACS of HL-60 cells treated with compound or vehicle control for 2 hours prior to 7-AAD and Annexin V staining. (B) HL-60 cells from A were harvested and lysates were immunoblotted for levels of pPAK, and actin was used as a control for loading. (C) F-actin reorganization in freshly isolated fMLP-stimulated primary murine neutrophils was analyzed. […] Cells were exposed to a 10 μM dose of Phox-I1, Phox-I2, and Analog 13, and 200 nM nocodazole. (D) The effect of Phox-I on NOX4 mediated ROS production was tested in primary murine neutrophils transfected with a NOX4 expressing plasmid. 10 μM Phox-I1 was applied to the cells for 30 min prior to ROS assay by luminol chemiluminescence in the presence of HRP. The fMLP-stimulated ROS activity in the presence or absence of 10 uM Phox-I1 was measured in parallel. (E) The antioxidant abilities of these lead compounds were tested by prestimulating dHL-60 cells with fMLP for 30 minutes prior to treatment with Phox-I1 or Phox-I2. Levels of superoxide were analyzed by DCFDA assay and FACS. NAC, apocyanin, DPI, and NSC23766 treated cells served as controls. […] (G) For stability assay, DMSO-differentiated HL-60 cells were treated with 20 μM dose of compound for the indicated time period prior to fMLP stimulation and DCFDA ROS production assay by FACS analysis.
# Phox-I1 was then applied to primary murine neutrophils expressing the constitutively active NOX4. […] To further rule out that Phox-I1 and Phox-I2 may simply act as scavengers of ROS, dHL-60 cells were pre-stimulated with fMLP for 30 min prior to treatment with Phox-I1 or Phox-I2.
# LPS-induced ALI in mice = details: 5 mg/kg i.p. every 8 hours, 24 hours after LPS
# Procedure: FIG. 8. […] Mice were challenged with LPS or vehicle via intratracheal administration and treated or not with compound 100 (indicated as “NOX2-I”; 5 mg/kg, 3 injections every 8 hours). (A) Isoprostane, as an indication of ROS production, was measured in lung homogenates 24 hours following LPS challenge by ELISA. (B) Lung histology was performed 24 hours after LPS challenge. (n=3 mice per group). Representative images of histology are shown.
# One life-threatening consequence of hemorrhagic shock is acute lung injury (ALI), which is associated with infiltration of neutrophils and release of ROS. A model of LPS-induced ALI was used in mice to test efficacy of the difluoro compound 100 in vivo.
# Mice (N=3 per group) were treated with LPS (100 ng in 80 μl PBS) or PBS (vehicle) employing oral-tracheal intubation. Following challenge, the mice were injected i.p. with 5 mg/kg of compound 100, every 8 hours. The relative level of ROS release in the lungs upon LPS challenge was assessed by measuring 8-isoprostane by ELISA in lung tissue homogenates. Isoprostanes are a family of eicosanoids produced by the oxidation of tissue phospholipids by oxygen radicals. The amount of 8-isoprostane generated is thus an indication of ROS production.
# [3] = test system: fMLP-stimulated differentiated HL-60 cells; test: H2-DCFDA FACS ROS production assay in fMLP-stimulated differentiated HL-60 cells; type: cell-based, human; details: treated 2 hours, FIG. 5B
# Procedure: HL-60 cells were propagated in RPMI 1640 medium containing 10% heat inactivated fetal bovine serum, 2 mM L-glutamine, 100 U/mL penicillin/streptomycin at 37° C. in air containing 5% CO2. For differentiation, HL-60 cells were cultured in 1.3% dimethyl sulfoxide (DMSO) as previously described (Servant, G., et al. (1999) Mol Biol Cell 10, 1163-1178, hereby incorporated by reference in its entirety). Primary murine neutrophils were isolated from C57Bl/6 mouse bone marrow according to a published protocol (Filippi et al., (2004) Nat Immunol 5, 744-751, hereby incorporated by reference in its entirety) using a discontinuous Percoll (Pharmacia) gradient and were utilized immediately in experiments. Human neutrophils were obtained from fresh blood (IRB #2010-1855, Cincinnati Children's Hospital medical Center) following a well established protocol using density gradient separation from whole blood (Oh et al. (2008) J Vis Exp., 17, pii: 745, hereby incorporated by reference in its entirety).
# (§1) Cells (5×10^5) were harvested and processed for Annexin V/7AAD staining according to manufacturer's protocol (Becton Dickinson). Flow cytometry data were acquired on a FACS Canto bench-top flow cytometer (Becton Dickinson) and the cell cycle distributions were determined by […] using Flo-Jo software (Bosco et al (2010) Blood 115, 3320-3328, hereby incorporated by reference in its entirety). For ROS production assay, primary murine neutrophils or dHL60 cells were incubated with compound for 2 hours prior to addition of H2-DCFDA according to manufacturer's instructions (Molecular Probes). Cells were then stimulated with 10 μM fMLP (Sigma), 1 mM CaCl2, and 1.5 mM MgCl2 for 15 minutes prior to wash and FACS analysis for mean fluorescence intensity. Non-fMLP stimulated control values were subtracted from all samples before normalization to fMLP-stimulated, vehicle control treated sample in order to display percent ROS inhibition.
# To validate the hits from preliminary screening in cells, several cellular functional assays were performed using different cell types to measure the effect of compounds on inhibition of ROS production. ROS levels were first analyzed by fluorescence-activated cell sorting (FACS) in HL-60 pre-incubated with compounds for 2 hr prior to stimulation of ROS production. The p67^phox inhibitor, Phox-I1, was tested against NAC (a ROS scavenger), DPI (a broad range inhibitor of NADPH oxidase), and NSC23766 (a Rac-GTP inhibitor; FIG. 2A). […] H2O2 added to the cells was included as a positive control for ROS measurement. Second, to test the capacity of Phox-I1 to inhibit ROS production in a primary cell context, primary murine neutrophils isolated from mouse bone marrow were treated with increasing concentrations of Phox-I1 and the efficacy of inhibition of fMLP-stimulated ROS production was analyzed. DPI treatment was included as a positive control for inhibition of ROS production (FIG. 2B). […] Next, to ascertain the optimal effective dose for ROS inhibition in cells, a dose titration series of Phox-I1 was administered to dHL-60 cells (FIG. 2C).
# dHL-60 cells [4] = test: DCFDA ROS assay after wash and recovery (affinity assay); type: cell-based, human; details: 2 hr treatment, recovery 4 hr or 2 hr
# Procedure: (A) Apoptosis analysis by FACS of HL-60 cells treated with compound or vehicle control for 2 hours prior to 7-AAD and Annexin V staining. (B) HL-60 cells from A were harvested and lysates were immunoblotted for levels of pPAK, and actin was used as a control for loading. (C) F-actin reorganization in freshly isolated fMLP-stimulated primary murine neutrophils was analyzed. […] Cells were exposed to a 10 μM dose of Phox-I1, Phox-I2, and Analog 13, and 200 nM nocodazole. (D) The effect of Phox-I on NOX4 mediated ROS production was tested in primary murine neutrophils transfected with a NOX4 expressing plasmid. 10 μM Phox-I1 was applied to the cells for 30 min prior to ROS assay by luminol chemiluminescence in the presence of HRP. The fMLP-stimulated ROS activity in the presence or absence of 10 uM Phox-I1 was measured in parallel. (E) The antioxidant abilities of these lead compounds were tested by prestimulating dHL-60 cells with fMLP for 30 minutes prior to treatment with Phox-I1 or Phox-I2. Levels of superoxide were analyzed by DCFDA assay and FACS. NAC, apocyanin, DPI, and NSC23766 treated cells served as controls. (F) For affinity assay, DMSO-differentiated HL-60 cells were treated with standard effective dose of indicated compound for 2 hours, washed, and allowed to recover in normal media for 4 hours or 2 hours prior to fMLP stimulation and DCFDA ROS production assay by FACS analysis. (G) For stability assay, DMSO-differentiated HL-60 cells were treated with 20 μM dose of compound for the indicated time period prior to fMLP stimulation and DCFDA ROS production assay by FACS analysis.
# Next, a stability experiment was performed to determine the duration of effectiveness of the compound in suppressing neutrophils. To analyze the relative affinities of these compounds for the p67^phox target in cells, DCFDA ROS production assays were performed in dHL-60 cells treated with compound for 2 hr followed by wash and recovery for 4 hr or 2 hr in normal media prior to ROS production analysis.
# [5] = test system: primary murine neutrophils; test: F-actin immunofluorescence, polarization upon fMLP stimulation; type: cell-based, mouse; details: 200 nM; control 80%
# Procedure: Cells were pretreated with compound for 40 minutes prior to wash, and resuspended in HBSS with compound. Cells were allowed to adhere to fibronectin (Sigma Aldrich) coated glass coverslips (15 min) and then stimulated with 100 nM fMLP (3 min). Coverslips were then fixed with 3.7% paraformaldehyde (Sigma Aldrich) and then staining for […] was performed with rhodamine phalloidin per the manufacturer's instructions (Molecular Probes). Another method of addressing Rac-signaling specificity in neutrophils is by monitoring their ability to polarize actin to the leading edge upon fMLP stimulation. Neither Phox-I1, Phox-I2, nor an analog 13 (all at 10 μM), were able to block the Rac-mediated dynamic process of F-actin polarization to the leading edge of primary murine neutrophils as observed by F-actin immunofluorescence imaging (FIG. 4C, left panel). F-actin polarization was evident in about 80% of each treatment group of cells as in the control, untreated cells (FIG. 4C, right panel).
# Pak = test: immunoblot of phosphorylated Pak; type: cell-based, human; details: 18 hr treatment
# Procedure: Whole-cell lysates were prepared by cell extraction using lysis buffer containing 20 mM Tris-HCl (pH 7.6), 100 mM NaCl, 10 mM MgCl2, 1% Triton X-100, 0.2% sodium deoxycholate, 1 mM phenylmethylsulfonyl fluoride, 10 μg/mL of leupeptin, 1 μg/mL of aprotinin, and 1 mM dithiothreitol for 30 min. Equal amounts of protein, as determined by Bradford assay, were resolved by SDS-PAGE. Specific proteins were detected by standard 9 immunoblotting procedures using the following primary antibodies: (Cell Signaling, 1:500 dilution) phospho-PAK1 (Ser144)/PAK2 (Ser141), (Sigma-Aldrich 1:500) β-Actin.
# To analyze the biochemical specificity of these lead inhibitors on the effector pathways of active Rac1, undifferentiated HL-60 cells were treated with Phox-I1, Phox-I2, or NSC23766 for 18 hr. Immunoblot of the cell lysates was performed to probe the activity of Pak, a Rac effector other than p67^phox (FIG. 4B).
# [6] = test system: undifferentiated HL-60 cells; test: apoptosis analysis by FACS (Annexin V / 7-AAD); type: cell-based, human; details: 20 or 100 μM
# Procedure: as §1
# In order to determine potency and cytotoxicity of Phox-I1 and Phox-I2, the levels of apoptosis were assessed in undifferentiated HL-60 cells treated with 20 or 100 μM Phox-I1, Phox-I2, or NSC23766 by FACS analysis for Annexin V (FIG. 4A).
smiles,measurement,setting,value
Fc1ccc2c(c1)[C@@H]1C=CC[C@@H]1[C@H](c1ccc(Cl)s1)N2 [Compound 103],ROS inhibition (NBT positive cells),[1],highest level of ROS inhibition
Fc1cccc(C2Nc3ccc(F)cc3C3C=CCCC32)c1 (centres unmarked) [Compound 109],toxicity to neutrophils,neutrophils,toxic to neutrophils
Fc1ccc2c(c1)[C@@H]1C=CC[C@@H]1[C@H](c1cccc(Cl)c1)N2 [Compound 106],ROS inhibition (NBT positive cells),[1],highest level of ROS inhibition
"c1ccc2c(c1)[I+]c1ccccc1-2 [DPI, diphenyleneiodonium]",levels of superoxide already produced,dHL-60 cells [2],do not affect
Fc1cccc([C@@H]2Nc3ccc(Br)cc3[C@@H]3C=CC[C@@H]32)c1 [Compound 102],ROS inhibition (NBT positive cells),[1],highest level of ROS inhibition
Fc1cccc(C2Nc3ccc(F)cc3C3C=CCC32)c1 (centres unmarked) [Compound 100],"lung histology: neutrophil infiltration, alveoli wall thickness, lung architecture",LPS-induced ALI in mice,attenuated
same,"superoxide inhibition (NBT), Phox-I2 analogs",[1]; FIG. 5C,profound superoxide inhibition
same,"ROS inhibitory activity, Phox-I2 analogs",[3],retain activity
"CC(=O)N[C@@H](CS)C(=O)O [NAC, reference compound]",ROS inhibition after wash,dHL-60 cells [4],retained the ability to inhibit ROS production
Fc1cccc([C@H]2Nc3ccc(F)cc3[C@@H]3OCCC[C@H]23)c1 [Compound 101],ROS inhibition (NBT positive cells),[1],highest level of ROS inhibition
same,"ROS inhibition, dose response (NBT)","[1]; 0.1 to 10 μM, FIG. 10",most potent ROS inhibitor
"COC(=O)Nc1nc2ccc(C(=O)c3cccs3)cc2[nH]1 [Nocodazole, reference compound]",cells with F-actin polarization,[5],~20%
"CCN(CC)CCCC(C)Nc1nc(C)cc(Nc2ccc3nc(C)cc(N)c3c2)n1 (centres unmarked) [NSC23766, reference compound]",phosphorylated Pak levels,Pak,abrogated
same,cell apoptosis (Annexin V),[6],no detectable effect on cell apoptosis
same,levels of superoxide already produced,dHL-60 cells [2],do not affect
same,ROS inhibition after wash,dHL-60 cells [4],retained the ability to inhibit ROS production
COc1cc(C(C)=O)ccc1O [apocyanin],levels of superoxide already produced,dHL-60 cells [2],do not affect
